Source: patent US8597646B2, “Methods and compositons featuring TGF-beta antagonists for the treatment of marfan syndrome and associated disorders” (The Johns Hopkins University, priority 2005, dated 2013)
“Also recorded” adds a separate entry of the source.

Legend:
Type in all cases: in vivo, mouse
Fbn1C1039G/+ mice [1] = test: Prenatal treatment with losartan and propranolol, aorta of Fbn1C1039G/+ mice; conditions: prenatal start
Excerpt: Treatment of the mothers continued throughout lactation and was maintained in the pups after weaning. Mice were killed at 10 months of age. […] The average aortic wall thickness for untreated wild-type animals was smaller than that in placebo-treated Fbn1C1039G/+ mice (P<0.0001) but was indistinguishable from that in losartan-treated Fbn1C1039G/+ mice (P=0.24, FIG. 20E).

C1039G/+ mice [2] = test: Aortic root growth by echocardiography in C1039G/+ mice, 4 months of treatment
Protocol: Markers of TGFβ antagonism have included reduced plasma levels of free TGFβ, reduced intracellular initiation of the TGFβ signaling cascade, and reduced tissue expression of TGFβ-responsive genes. […] Three independent measurements of the aortic root were made from the long axis echo view in systole at each of 3 time points (baseline, 2 and 4 months of treatment; FIG. 8A). All analyses were performed blinded to genotype and treatment arm. […] This represents the first therapeutic strategy for MFS that derives from interrogation of disease pathogenesis and the first possibility for primary prevention of disease manifestations.

Fbn1C1039G/+ mice [3] = test: Postnatal treatment with losartan and propranolol, aorta of Fbn1C1039G/+ mice
Excerpt: However, before treatment, the aortic diameter in Fbn1C1039G/+ mice was always greater than in untreated wild-type mice (1.59±0.11 mm; P<0.002).
Three independent aortic root measurements were obtained for each mouse every 2 months during the 6 months of treatment. Mice were killed at 8 months of age. […] The aortic root growth rate over this period was less in the wild-type mice than in the placebo-treated Fbn1C1039G/+ mice (P<0.0001, FIG. 21I).

C1039G/+ mice [4] = test: Aortic wall histology (elastic matrix architecture) in treated C1039G/+ mice; conditions: 4 months of treatment

Compound: CC(C)NCC(O)COc1cccc2ccccc12 (stereo not drawn) [propranolol]
- Aortic dilatation (Fbn1C1039G/+ mice [1]; 10 months): marked aortic dilatation
- Aortic wall architecture score (Fbn1C1039G/+ mice [1]; 10 months of treatment): not influenced
- Average aortic wall thickness (Fbn1C1039G/+ mice [1]; 10 months of treatment): indistinguishable from that in the placebo group
- Elastic fiber fragmentation / architecture (VVG staining) (Fbn1C1039G/+ mice [1]; drinking water, killed at 10 months): observed; also recorded: Marked elastic fiber disruption
- Aortic growth during the 4 months of treatment (C1039G/+ mice [2]; C1039G/+ mice from 7 weeks of age, losartan 50 mg/kg or propranolol 40 mg/kg, aortic root, echo, placebo 0.44±0.09): 0.22±0.06 mm
- Improvement in any parameter (C1039G/+ mice [2]; propranolol dose with the same antihypertensive effect as losartan): little improvement
- Aortic wall / elastic fiber architecture (Fbn1C1039G/+ mice [3]; 6 months of treatment): no discernable effect
- Aortic wall thickness (Fbn1C1039G/+ mice [3]; 6 months of treatment): no discernable effect
- Aortic root growth rate (Fbn1C1039G/+ mice [3]; during 6 months of treatment): slower rate of aortic root growth than did placebo-treated animals; also recorded: less than that with placebo, yet remains greater than that seen in wild-type mice
- TGF-β signaling in aortic media (nuclear pSmad2) (Fbn1C1039G/+ mice [3]; from 7 weeks of age, 6 months): Marked increase in nuclear staining for pSmad2
- Elastic fiber fragmentation (VVG staining) (Fbn1C1039G/+ mice [3]; from 7 weeks of age, 6 months, drinking water): diffuse fragmentation of elastic fibers
- Elastic matrix architecture / histologic parameters of the aorta (C1039G/+ mice [4]): did not improve
